Experimental data from BindingDB's records for doi:10.1021/jm020134i (Northwestern University, 2002).

Assay: Concentration dependent inactivation of gGamma-amino-N-butyrate transaminase

Compound: N[C@@H]1C=CC[C@H](C(=O)O)C1 [5-Amino-cyclohex-3-enecarboxylic acid]
- Ki: 2.3 mM
